# Square brackets hold non-standard residues; d marks the D form. Peptide text beside a SMILES is read from it. Aib = CC(C)(N)C(=O)O
# What was measured:
# [1] = Serum stability, human serum (HPLC); type: in vitro ADME; conditions: 37° C., 2 and 5 hours
# Text: D-Trp-Aib serum stability—Regardless of administration route, all drugs penetrate and distribute in the body via the blood system. This milieu is based not only on cells and buffering compounds, but also on proteins, carbohydrates, lipid-protein micelles, etc. Serum proteins mainly contain carrier proteins, such as albumin, but also contain many enzymes that might treat the drug as a substrate. Thus, the susceptibility of any drug entering this environment should be evaluated. The stability of D-Trp-Aib spiked into serum was evaluated by analysis of intact sample concentrations at different time points. D-Trp-Aib (250 μg/ml PBS) was incubated with mouse (Harlan Biotech, Israel) or human (obtained from Sheba medical center, Tel Hashomer, Israel) sera or PBS (1:1, 37° C.), and aliquots were analyzed by HPLC analysis at times 0, 2 and 5 hrs. The reaction was stopped and precipitation was effected by the addition of acetonitrile (Baker, Phillipsburg N.J.) and 10% TCA. Following centrifugation (10,000 g, 5 min), Supernatant was transferred to HPLC analysis. Mean amounts of D-Trp-Aib (μg)±s.e.m. were calculated by an internal calibration curve. […]
# HepG2 cells = assay: Cytotoxicity assay in hepatocytes; type: cell-based; conditions: up to 2.5×10^−4 M, 3H-Thymidine incorporation and Alamar-Blue assays
# Description: Cytotoxicity assay in hepatocytes—Following culture (37° C. in an atmosphere of 5% CO2 and 100% humidity), HepG2 cells (ATCC Accession No: HB-8065) were seeded at a density of 5000 cells/well in 96 well optical plate (Nunc, Rochester, N.Y.). Culture was maintained in the logarithmic phase throughout the experiment. One day after seeding, peptides were dissolved in DMSO (1:10) and added to the wells to achieve final concentrations of 2.5×10^−4−1×10^−8. Each plate column (8 wells) was used to test one peptide in one concentration. A day following peptide addition, ^3H-Thymidine was added to the cell culture, and two days following addition cells were harvested. ^3H-Thymidine incorporation to the DNA of proliferating cells was measured in Top Count NTX counter (Packard, Quebec, Canada). […] The indicator was incubated for 18 hours and fluorescence was measured with 544 nm excitation/590 nm emission wavelengths. Data was presented as the mean amount of Alamar-Blue fluorescence or ^3H-Thymidine CPM monitored per well. Average was calculated per plate column. For Alamar-Blue signals standard deviation (SD) was calculated, while for ^3H Thymidine signal, standard error (SE) was calculated. […] Equivocal results were analyzed using oneway (ANOVA) with Dunnett Multiple comparison Test.
# hERG potassium channel = biological target: T1, hERG potassium channel (Homo sapiens, UniProt Q12809); assay: Functional hERG assay (patch clamp); type: cell-based
# T1 construct: expressed in transfected cells
# T1 sequence (Q12809 whole entry): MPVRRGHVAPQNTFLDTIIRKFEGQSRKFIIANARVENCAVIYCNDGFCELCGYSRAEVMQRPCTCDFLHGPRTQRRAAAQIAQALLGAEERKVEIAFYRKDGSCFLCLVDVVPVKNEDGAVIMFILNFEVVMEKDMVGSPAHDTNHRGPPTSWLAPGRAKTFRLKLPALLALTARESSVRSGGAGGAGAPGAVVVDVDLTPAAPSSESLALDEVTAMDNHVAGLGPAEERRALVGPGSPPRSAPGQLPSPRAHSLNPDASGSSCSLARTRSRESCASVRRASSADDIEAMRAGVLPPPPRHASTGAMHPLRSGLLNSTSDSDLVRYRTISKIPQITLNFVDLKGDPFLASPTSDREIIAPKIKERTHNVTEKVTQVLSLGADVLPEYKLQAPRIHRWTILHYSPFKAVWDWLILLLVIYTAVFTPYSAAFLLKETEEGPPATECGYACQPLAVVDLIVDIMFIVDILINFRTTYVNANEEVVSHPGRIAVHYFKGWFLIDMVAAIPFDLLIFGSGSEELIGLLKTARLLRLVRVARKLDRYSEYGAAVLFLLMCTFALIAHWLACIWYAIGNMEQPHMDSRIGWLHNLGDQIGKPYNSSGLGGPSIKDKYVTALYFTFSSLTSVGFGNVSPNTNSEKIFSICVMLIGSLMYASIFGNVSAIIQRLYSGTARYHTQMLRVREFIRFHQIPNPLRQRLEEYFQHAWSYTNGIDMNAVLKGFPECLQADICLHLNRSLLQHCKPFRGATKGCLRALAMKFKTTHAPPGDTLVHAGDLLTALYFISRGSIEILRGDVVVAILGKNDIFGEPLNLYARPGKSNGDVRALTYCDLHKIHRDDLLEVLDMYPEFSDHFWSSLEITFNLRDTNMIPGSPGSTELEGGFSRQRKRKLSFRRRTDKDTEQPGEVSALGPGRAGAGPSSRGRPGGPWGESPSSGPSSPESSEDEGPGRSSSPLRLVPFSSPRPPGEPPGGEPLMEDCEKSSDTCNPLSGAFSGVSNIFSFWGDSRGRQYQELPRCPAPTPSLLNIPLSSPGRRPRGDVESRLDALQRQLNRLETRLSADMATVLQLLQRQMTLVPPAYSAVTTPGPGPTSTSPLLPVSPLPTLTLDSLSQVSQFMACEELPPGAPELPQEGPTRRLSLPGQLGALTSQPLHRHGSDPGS
# Description: Functional hERG assay—Compounds were tested in duplicate in a 3-point dose response curve on HEK cells stably expressing the hERG potassium channel (GenBank Accession No. AAD01946). Potassium current was measured using the patch clamp technique on a Molecular Devices Patch Express 7000. hERG channels were activated by 2 second pulses to +20 mV from a holding potential of −80 mV, and K^+ currents were recorded upon repolarization to −50 mV. This voltage-clamp pulse protocol was performed continuously during the experiment (vehicle control, test compound, washout, and positive control additions). An interpulse interval of 15 seconds allowed recovery from any residual inactivation. Compounds were incubated with cells between 3-8 minutes until the current reached a steady state level. After compounds were tested, they were washed out with continuous perfusion for 3 minutes, followed by application of positive control (10 uM Cisparide).
# CYP450 1A2 = biological target: T2, CYP450 1A2 (Homo sapiens, UniProt P05177); assay: Human CYP450 screen 1A2; type: in vitro ADME
# T2 sequence (P05177 1-516): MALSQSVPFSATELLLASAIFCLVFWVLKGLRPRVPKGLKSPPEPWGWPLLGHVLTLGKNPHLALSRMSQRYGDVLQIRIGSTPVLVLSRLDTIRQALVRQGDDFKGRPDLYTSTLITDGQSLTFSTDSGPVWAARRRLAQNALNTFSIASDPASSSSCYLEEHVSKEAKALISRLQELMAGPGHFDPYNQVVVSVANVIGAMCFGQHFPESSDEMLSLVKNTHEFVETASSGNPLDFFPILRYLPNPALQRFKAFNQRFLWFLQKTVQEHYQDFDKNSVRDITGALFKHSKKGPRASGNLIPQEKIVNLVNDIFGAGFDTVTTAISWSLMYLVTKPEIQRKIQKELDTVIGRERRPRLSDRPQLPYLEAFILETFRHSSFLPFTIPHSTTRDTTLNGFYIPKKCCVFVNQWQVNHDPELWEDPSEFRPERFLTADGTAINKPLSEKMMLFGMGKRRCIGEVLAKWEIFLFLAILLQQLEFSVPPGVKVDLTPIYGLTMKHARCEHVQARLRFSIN
# Text: (§1) For the metabolic stability assay, Human cytochrom P450 (CYP450) screens were used. The cytochrom P450 isoenzymes, which are located in the intestines, liver, lung, kidney and brain, are involved in important drug interactions. Drug metabolism occurs in two phases—Phase I involves oxidation, reduction, and hydrolysis. Phase II involves synthesis and conjugation. The CYP 450 isoenzymes are involved in Phase I oxidative reactions. CYP 450 interactions generally result from one of two processes—Induction, where a substance stimulates the synthesis of the enzyme and metabolic capacity is increased, and inhibition, where competitive binding at an enzyme's binding site(s) occurs. A drug with a high affinity for an enzyme will slow the metabolism of any low affinity drug. CYP 3A3/4 is the most abundant CYP 450 isoenzyme in humans and is responsible for the metabolism of the widest range of drugs/substances. (CYP450) screens used were 1A2, 2C9, 2C19, 2D6 and 3A4.
# CYP450 2C9 = CYP450 2C9 (Homo sapiens, UniProt P11712); assay: Human CYP450 screen 2C9; type: in vitro ADME
# Sequence of CYP450 2C9 (P11712 whole entry): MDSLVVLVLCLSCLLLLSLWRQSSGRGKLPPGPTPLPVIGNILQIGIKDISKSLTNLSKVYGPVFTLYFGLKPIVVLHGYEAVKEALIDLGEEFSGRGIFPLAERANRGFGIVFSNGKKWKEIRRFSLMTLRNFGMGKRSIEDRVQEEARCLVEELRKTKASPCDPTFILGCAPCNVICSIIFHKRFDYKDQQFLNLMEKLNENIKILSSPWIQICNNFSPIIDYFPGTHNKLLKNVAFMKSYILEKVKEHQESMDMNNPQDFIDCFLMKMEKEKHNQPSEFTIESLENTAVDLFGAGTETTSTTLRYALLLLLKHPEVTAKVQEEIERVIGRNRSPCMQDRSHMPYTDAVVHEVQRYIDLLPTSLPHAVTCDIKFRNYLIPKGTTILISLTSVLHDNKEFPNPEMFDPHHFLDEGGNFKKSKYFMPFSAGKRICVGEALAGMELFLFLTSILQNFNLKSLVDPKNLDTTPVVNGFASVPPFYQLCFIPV
# Text: as §1
smiles,measurement,setting,value
CC(C)(NC(=O)[C@H](N)Cc1c[nH]c2ccccc12)C(=O)O [D-Trp-Aib] (H-[dW]-[Aib]-OH),D-Trp-Aib concentration after incubation in serum,[1],No decrease
same,cytotoxic effect on HepG2 cells,HepG2 cells,no cytotoxic effect
same,effect on potassium channels,hERG potassium channel; HEK cells stably expressing hERG,did not show any effect on potassium channels
same,IC50,"hERG potassium channel; human, HEK cells stably expressing the hERG potassium channel, read-out: IC50 for potassium current",> 50 µM
same,activity in CYP450 screen,CYP450 1A2,None of the results met significance criteria
same,activity in CYP450 screen,CYP450 2C9,None of the results met significance criteria
